Experimental data as given in ChEMBL document CHEMBL1201862, “PubChem BioAssay data set” (2004).
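Test compounds were applied to cells in 96-well plates for 48 hours at 5 doses. GI50 = concentration required for 50% inhibition of growth.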 Active and inactive are the calls of the source. No stated cut-off is given here; in the data, active = GI50 up to about 1.1 µM and inactive = higher.

What was measured:
Assay in all cases: NCI anticancer screen, dose series, 48 h
[1] = tested on: PC-3
[2] = tested on: TK-10
[3] = tested on: KM12
[4] = tested on: Malme-3M
[5] = tested on: MDA-MB-231
[6] = tested on: SK-OV-3
[7] = tested on: A549
[8] = tested on: OVCAR-3
[9] = tested on: IGROV-1
[10] = tested on: CAKI-1
[11] = tested on: EKVX
[12] = tested on: NCI-H460
[13] = tested on: NCI-H23
[14] = tested on: Hs-578T
[15] = tested on: HOP-92
[16] = tested on: SF-295
[17] = tested on: LOX IMVI
[18] = tested on: SNB-75
[19] = tested on: SW-620
[20] = tested on: A498
[21] = tested on: CCRF-CEM
[22] = tested on: RXF 393
[23] = tested on: SK-MEL-5
[24] = tested on: DU-145
[25] = tested on: OVCAR-8
[26] = tested on: SN12C
[27] = tested on: RPMI-8226
[28] = tested on: SK-MEL-28
[29] = tested on: SR
[30] = tested on: M14
[31] = tested on: HT-29
[32] = tested on: HCT-116
[33] = tested on: MCF7
[34] = tested on: NCI-H522
[35] = tested on: OVCAR-5
[36] = tested on: K562
[37] = tested on: HOP-62
[38] = tested on: OVCAR-4
[39] = tested on: U-251
[40] = tested on: SF-268
[41] = tested on: ACHN
[42] = tested on: MOLT-4
[43] = tested on: NCI/ADR-RES
[44] = tested on: UACC-62
[45] = tested on: MDA-N
[46] = tested on: SK-MEL-2
[47] = tested on: SNB-19
[48] = tested on: NCI-H226
[49] = tested on: BT-549
[50] = tested on: T47D
[51] = tested on: HL-60
[52] = tested on: SF-539
[53] = tested on: 786-0
[54] = tested on: HCT-15
[55] = tested on: COLO 205
[56] = tested on: UACC-257
[57] = tested on: MDA-MB-435
[58] = tested on: UO-31

Measured: GI50

CC(C)(C)C(=O)CP(=O)(O)O
> 100 µM: [54]
inactive: [1] > 100 µM | [2] > 100 µM | [3] > 100 µM | [4] > 100 µM | [5] > 100 µM | [6] > 100 µM | [7] > 100 µM | [8] > 100 µM | [9] > 100 µM | [10] > 100 µM | [11] > 100 µM | [12] > 100 µM | [13] > 100 µM | [14] > 100 µM | [15] > 100 µM | [16] > 100 µM | [17] > 100 µM | [18] > 100 µM | [19] > 100 µM | [20] > 100 µM | [21] > 100 µM | [22] > 100 µM | [23] > 100 µM | [24] > 100 µM | [25] > 100 µM | [26] > 100 µM | [27] > 100 µM | [28] > 100 µM | [29] > 100 µM | [30] > 100 µM | [31] > 100 µM | [32] > 100 µM | [33] > 100 µM | [34] > 100 µM | [35] > 100 µM | [36] > 100 µM | [37] > 100 µM | [38] > 100 µM | [39] > 100 µM | [40] > 100 µM | [41] > 100 µM | [42] > 100 µM | [43] > 100 µM | [44] > 100 µM | [45] > 100 µM | [46] > 100 µM | [47] > 100 µM | [48] > 100 µM | [49] > 100 µM | [50] > 100 µM | [51] > 100 µM | [52] > 100 µM | [53] > 100 µM | [55] > 100 µM | [56] > 100 µM | [57] > 100 µM

COc1nc2ncc([C@@H](OC(C)=O)[C@@H](COC(C)=O)OC(C)=O)nc2c(=O)n1C
inactive: [1] > 100 µM | [2] > 100 µM | [3] > 100 µM | [4] > 100 µM | [5] > 100 µM | [6] > 100 µM | [7] > 100 µM | [8] > 100 µM | [58] > 100 µM | [9] > 100 µM | [10] > 100 µM | [11] > 100 µM | [12] > 100 µM | [14] > 100 µM | [15] > 100 µM | [16] > 100 µM | [17] > 100 µM | [18] > 100 µM | [19] > 100 µM | [20] > 100 µM | [21] 58.1 µM | [22] > 100 µM | [23] > 100 µM | [24] > 100 µM | [25] > 100 µM | [26] > 100 µM | [27] 96.8 µM | [28] > 100 µM | [29] > 100 µM | [30] > 100 µM | [31] > 100 µM | [32] > 100 µM | [33] > 100 µM | [34] 57.5 µM | [35] > 100 µM | [36] > 100 µM | [37] > 100 µM | [38] 48 µM | [39] > 100 µM | [40] > 100 µM | [41] > 100 µM | [42] > 100 µM | [43] > 100 µM | [44] > 100 µM | [45] > 100 µM | [46] > 100 µM | [47] > 100 µM | [48] > 100 µM | [49] > 100 µM | [50] > 100 µM | [51] 24.3 µM | [52] > 100 µM | [53] > 100 µM | [55] > 100 µM | [56] > 100 µM | [57] > 100 µM
> 100 µM: [54]
